Experimental data published in ChEMBL document CHEMBL4387767, “Synthesis of carbazoloquinone derivatives and their antileukemic activity via modulating cellular reactive oxygen species” (Bioorg Med Chem Lett, 2019).
Activity calls are given as the source filed them. No cut-off for these calls is given here.

Legend:
HL-60 [1] = assay: Cytotoxicity against human HL60 cells assessed as reduction in cell viability measured after 48 hrs by CCK8 assay; format: functional, cell-based; conditions: HL-60, 48 h
HL-60 [2] = assay: Cytotoxicity against human HL60 cells assessed as cell viability at 10 uM measured after 48 hrs by CCK8 assay relative to control; format: functional; conditions: HL-60, 48 h, read-out: Activity
HL-60 [3] = assay: Induction of reactive oxygen species generation in human HL60 cells assessed as increase in intracellular ROS level at 1 uM measured after 2 hrs by NBT dye-based assay relative to control; format: functional
HL-60 [4] = assay: Induction of apoptosis in human HL60 cells assessed as chromatin condensation at 1 uM measured after 24 hrs by Hoechst 33342 staining based fluorescence microscopic method; format: functional, cell-based
HL-60 [5] = assay: Induction of reactive oxygen species generation in human HL60 cells assessed as increase in extracellular ROS level at 1 uM measured after 2 hrs by NBT dye-based assay; format: functional, cell-based
HL-60 [6] = assay: Induction of apoptosis in human HL60 cells assessed as chromatin fragmentation at 1 uM measured after 24 hrs by Hoechst 33342 staining based fluorescence microscopic method; format: functional, cell-based
HL-60 [7] = assay: Induction of apoptosis in human HL60 cells assessed as chromatin crenation at 1 uM measured after 24 hrs by Hoechst 33342 staining based fluorescence microscopic method; format: functional, cell-based

Structure (SMILES) | IC50 (HL-60 [1]; read-out: IC50) | viability at 10 µM (HL-60 [2]) | other results
CC1=CC(=O)c2[nH]c3ccc(Cl)cc3c2C1=O | 240 nM | < 20% | 
O=C1c2ccccc2C(=O)c2c1sc1ccccc21 | > 50000 nM |  | 
O=c1[nH]cc(F)c(=O)[nH]1 [FLUOROURACIL] |  |  | IC50 (HL-60 [1]): 42800 nM
CC1=CC(=O)c2[nH]c3ccc(C(F)(F)F)cc3c2C1=O | 590 nM | < 20% | 
CC1=CC(=O)c2c([nH]c3ccccc23)C1=O | 290 nM | < 20% | 
O=C1c2ccccc2C(=O)c2c1[nH]c1ccccc21 [BENZOCARBAZOLEDIONE] | > 50000 nM |  | Activity (HL-60 [3]): Active
O=C1c2ccccc2C(=O)c2c1[se]c1ccccc21 | > 50000 nM |  | 
COc1ccc2[nH]c3c(c2c1)C(=O)C(C)=CC3=O | 3110 nM | < 20% | 
CC1=CC(=O)c2[nH]c3ccccc3c2C1=O [MURRAYAQUINONE A] | 730 nM | < 20% | Activity (HL-60 [4]): Active; Activity (HL-60 [5]): Active; Activity (HL-60 [6]): Active; Activity (HL-60 [7]): Active; fold change (FC) (HL-60 [3]): 2.3 - 2.4
O=C1c2ccccc2C(=O)c2c1oc1ccccc21 | 410 nM |  | Activity (HL-60 [4]): Active; Activity (HL-60 [5]): Active; Activity (HL-60 [6]): Active; Activity (HL-60 [7]): Active; fold change (FC) (HL-60 [3]): 2.3 - 2.4
COc1ccc2c3c([nH]c2c1)C(=O)C=C(C)C3=O | 1210 nM | < 20% | 
COc1cc2[nH]c3c(c2cc1OC)C(=O)C(C)=CC3=O | 550 nM | < 20% | 
COc1ccc2[nH]c3c(c2c1)C(=O)C=C(C)C3=O | 5060 nM | < 20% | 
